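How tested: cells in 96-well plates exposed to compound for 48 hours at five concentrations. At the GI50, growth is halved.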 Active and inactive are the calls of the source. Rule as the data show it: active = GI50 up to about 1.1 µM and inactive = higher.
How the values were obtained:
Assay in all cases: inhibition of tumour cell growth, NCI panel, 48 h
HT-29 = test system: HT-29
NCI-H226 = test system: NCI-H226
OVCAR-5 = test system: OVCAR-5
SK-OV-3 = test system: SK-OV-3
DMS-114 = test system: DMS-114
HCT-116 = test system: HCT-116
KM-20L2 = test system: KM-20L2
SW-620 = test system: SW-620
UACC-257 = test system: UACC-257
M19-MEL = test system: M19-MEL
OVCAR-3 = test system: OVCAR-3
OVCAR-4 = test system: OVCAR-4
HCT-15 = test system: HCT-15
EKVX = test system: EKVX
CCRF-CEM = test system: CCRF-CEM
RPMI-8226 = test system: RPMI-8226

Row | Compound | GI50 (HT-29) | GI50 (NCI-H226) | GI50 (OVCAR-5) | GI50 (SK-OV-3) | GI50 (DMS-114) | GI50 (HCT-116) | GI50 (KM-20L2) | GI50 (SW-620) | GI50 (UACC-257) | GI50 (M19-MEL) | GI50 (OVCAR-3) | GI50 (OVCAR-4) | GI50 (HCT-15) | GI50 (EKVX) | GI50 (CCRF-CEM) | GI50 (RPMI-8226)
1 | COC(c1cccc(C(O)(C(F)(F)F)C(F)(F)F)c1)(C(F)(F)F)C(F)(F)F | 17.5 µM (inactive) | 18.2 µM (inactive) | 18.4 µM (inactive) | 20.1 µM (inactive) | 18.6 µM (inactive) | 16.9 µM (inactive) | 16.9 µM (inactive) | 18.8 µM (inactive) | 27.1 µM (inactive) | 16.1 µM (inactive) | 23.4 µM (inactive) | 16.7 µM (inactive) | 19.1 µM | 17.9 µM (inactive) |  | 
2 | O=C1C(Cl)N(c2cccc([N+](=O)[O-])c2)C1c1c[nH]c2ccccc12 (stereo not drawn) | 17.1 µM (inactive) |  | 11.9 µM (inactive) | 11.1 µM (inactive) | 15.1 µM (inactive) | 19.2 µM (inactive) | 19.9 µM (inactive) | 21.7 µM (inactive) | 20.7 µM (inactive) | 18.1 µM (inactive) | 20.5 µM (inactive) | 18.1 µM (inactive) |  | 28.4 µM (inactive) | 4.61 µM (inactive) | 16.9 µM (inactive)
3 | O=C(CSSCC(=O)Nc1ccc(Br)cc1)Nc1ccc(Br)cc1 | 20.9 µM (inactive) | 16.9 µM (inactive) | 18.2 µM (inactive) | 25.4 µM (inactive) | 14 µM (inactive) | 14.4 µM (inactive) | 15.1 µM (inactive) | 15.2 µM (inactive) | 20.7 µM (inactive) | 18.5 µM (inactive) | 18.1 µM (inactive) | 20 µM (inactive) | 19.6 µM | 26.5 µM (inactive) |  | 21.6 µM (inactive)
4 | O=c1[nH]cc(COCC(F)(F)C(F)(F)C(F)(F)C(F)F)c(=O)[nH]1 | > 100 µM (inactive) |  | > 100 µM (inactive) | > 100 µM (inactive) | > 100 µM (inactive) | > 100 µM (inactive) | > 100 µM (inactive) | > 100 µM (inactive) | > 100 µM (inactive) | > 100 µM (inactive) | > 100 µM (inactive) |  | > 100 µM | > 100 µM (inactive) | > 100 µM (inactive) | > 100 µM (inactive)
5 | C=C1CC(OC)(C(O)C(=O)N[C@H]2OCO[C@H]3C2O[C@H](C[C@H](O)COC)C(C)(C)C3OC)O[C@H](C)[C@@H]1C (stereo partly drawn) | < 0.00773 µM (active) | < 0.00773 µM (active) | < 0.00773 µM (active) |  | < 0.00773 µM (active) | < 0.00773 µM (active) | < 0.00773 µM (active) | < 0.00773 µM (active) | < 0.00773 µM (active) | < 0.00773 µM (active) | < 0.00773 µM (active) | < 0.00773 µM (active) | < 0.00773 µM | < 0.00773 µM (active) | < 0.00773 µM (active) | < 0.00773 µM (active)
6 | C=C(C(=C)P(=S)(c1ccccc1)c1ccccc1)P(=S)(c1ccccc1)c1ccccc1 | > 100 µM (inactive) |  | > 100 µM (inactive) | > 100 µM (inactive) | 35.2 µM (inactive) | > 100 µM (inactive) | > 100 µM (inactive) | > 100 µM (inactive) | > 100 µM (inactive) | > 100 µM (inactive) | > 100 µM (inactive) | 34.8 µM (inactive) | > 100 µM | > 100 µM (inactive) | > 100 µM (inactive) | 8.75 µM (inactive)
7 | CCCCc1c2c(nc3c1CCCC3=O)CCCC2 | > 100 µM (inactive) | 18.3 µM (inactive) |  | > 100 µM (inactive) | > 100 µM (inactive) | > 100 µM (inactive) | 20 µM (inactive) | > 100 µM (inactive) | > 10 µM (inactive) | > 100 µM (inactive) | > 100 µM (inactive) |  | > 100 µM | > 100 µM (inactive) | > 100 µM (inactive) | > 100 µM (inactive)
8 | C#CCCCCC#CC1CCCC1C1=CC(=O)c2ccccc21 (stereo not drawn) | 4.5 µM (inactive) | 14.5 µM (inactive) | 11.5 µM (inactive) | 15.3 µM (inactive) | 1.48 µM (inactive) | 1.47 µM (inactive) | 10.3 µM (inactive) | 2.28 µM (inactive) | 11.2 µM (inactive) |  | 5.3 µM (inactive) | 10.3 µM (inactive) | 7.24 µM | 14.8 µM (inactive) | 1.5 µM (inactive) | 1.98 µM (inactive)
9 | COc1cc2c(cc1OC)C(Cl)C(c1ccc(Cl)cc1)=C2Cl (stereo not drawn) | 13.3 µM (inactive) | 22 µM (inactive) |  | 28.5 µM (inactive) | 11.9 µM (inactive) |  | 18.1 µM (inactive) | 18.7 µM (inactive) |  | 17.1 µM (inactive) | 16.5 µM (inactive) |  | 14.5 µM | 9.86 µM (inactive) | 6.15 µM (inactive) | 9.02 µM (inactive)
10 | O=P1(Oc2ccc(Cl)cc2Cl)Oc2cc3ccccc3cc2O1 | > 72.9 µM (inactive) | > 76.6 µM (inactive) | > 100 µM (inactive) | > 100 µM (inactive) | 27.5 µM (inactive) | > 78.2 µM (inactive) | > 100 µM (inactive) | 70.1 µM (inactive) | > 100 µM (inactive) |  | 28.4 µM (inactive) | 76 µM (inactive) | 50 µM | 33.9 µM (inactive) | 35.5 µM (inactive) | 18.8 µM (inactive)
11 | CN(C)c1ccc(/C=C/C(=O)O)cc1 | > 100 µM (inactive) | > 100 µM (inactive) | > 100 µM (inactive) | > 100 µM (inactive) | > 100 µM (inactive) | > 100 µM (inactive) | > 100 µM (inactive) | > 100 µM (inactive) | > 100 µM (inactive) | > 100 µM (inactive) | 49.3 µM (inactive) |  | > 100 µM | > 100 µM (inactive) | > 100 µM (inactive) | > 100 µM (inactive)
12 | COC(=O)C12CC(c3ccccc31)C1C(=O)OC(=O)C12 (stereo not drawn) | > 100 µM (inactive) |  | > 100 µM (inactive) |  | > 100 µM (inactive) | > 100 µM (inactive) | > 100 µM (inactive) | > 100 µM (inactive) | > 100 µM (inactive) | > 100 µM (inactive) | > 100 µM (inactive) | > 100 µM (inactive) | > 100 µM | > 100 µM (inactive) | > 100 µM (inactive) | > 100 µM (inactive)
13 | Cc1cc(C)n(CCNCCn2nc(C)cc2C)n1 |  |  |  | > 100 µM (inactive) | > 100 µM (inactive) | > 100 µM (inactive) | > 100 µM (inactive) | > 100 µM (inactive) | > 100 µM (inactive) | > 100 µM (inactive) | > 100 µM (inactive) | > 100 µM (inactive) |  | > 100 µM (inactive) | > 100 µM (inactive) | > 100 µM (inactive)
14 | O=C1c2ccccc2CC1C1(O)C(=O)Nc2c(Cl)cc(Cl)cc21 (stereo not drawn) | 67.8 µM (inactive) | 44.2 µM (inactive) | > 100 µM (inactive) | > 100 µM (inactive) | 21.9 µM (inactive) |  | > 100 µM (inactive) | 35.2 µM (inactive) | 27 µM (inactive) |  | 53.5 µM (inactive) | 92.5 µM (inactive) | 42.5 µM | 67 µM (inactive) | 26.6 µM (inactive) | 20.8 µM (inactive)

— ChEMBL document CHEMBL1201862, “PubChem BioAssay data set” (2004)
